Laboratory results: patent publication US20220323406A1, “METHODS AND COMPOSITIONS FOR DIFFERENTIATING STEM CELLS” (Massachusetts Institute of Technology, priority 2019, published 2022)

Tests used:
[1] = test system: ENR+CD organoids (ISC to Paneth cell differentiation); assay: Primary screen: CCh-stimulated lysozyme secretion LYZ.S, 2.5-D 384-well ENR+CD organoid differentiation; assay type: cell-based, mouse; details: primary screen
Text: (§1) High-throughput screening.

ENR+CD organoids = assay: Primary screen: ATP (CellTiter-Glo 3D, CTG) cell number/viability, 2.5-D 384-well ENR+CD organoids; details: primary screen; for Z.CTG: standard z score;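 for all read-outs here: compounds given at plating and again on day 3 over a 6-day differentiation from ENR+CV stem-cell-enriched precursors, ATP measured on day 6, plate median as control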
[2] = test system: ENR+CD organoids (ISC to Paneth cell differentiation); assay: Primary screen: basal (non-stimulated) lysozyme secretion LYZ.NS, 2.5-D 384-well ENR+CD organoid differentiation; assay type: cell-based, mouse; details: primary screen; for Z.LYZ.NS: standard z score
Text: as §1

[3] = dose 0.08 uM, FC relative to plate median
[4] = dose 0.40 uM, FC relative to plate median
[5] = dose 2.00 uM, FC relative to plate median
[6] = dose 10.00 uM, FC relative to plate median

SMILES | Dose.FC.LYZ.S [1, 3] | Dose.FC.LYZ.S [1, 4] | Dose.FC.LYZ.S [1, 5] | Dose.FC.LYZ.S [1, 6] | Dose.FC.CTG (ENR+CD organoids; [3]) | Z.CTG (ENR+CD organoids; dose 0.08 uM) | Dose.FC.CTG (ENR+CD organoids; [4]) | Z.CTG (ENR+CD organoids; dose 0.40 uM) | Dose.FC.CTG (ENR+CD organoids; [5]) | Z.CTG (ENR+CD organoids; dose 2.00 uM) | Dose.FC.CTG (ENR+CD organoids; [6]) | Z.CTG (ENR+CD organoids; dose 10.00 uM) | Dose.FC.LYZ.NS [2, 3] | Z.LYZ.NS ([2]; dose 0.08 uM) | Dose.FC.LYZ.NS [2, 4] | Z.LYZ.NS ([2]; dose 0.40 uM) | Dose.FC.LYZ.NS [2, 5] | Z.LYZ.NS ([2]; dose 2.00 uM) | Dose.FC.LYZ.NS [2, 6] | Z.LYZ.NS ([2]; dose 10.00 uM) | other results
O=C(NCc1cccc(O)c1)Nc1nc(-c2ccncc2)cs1 [RKI-1447] | −0.056 log2 fold change | −0.064 log2 fold change | −0.017 log2 fold change | −0.297 log2 fold change | −0.397 log2 fold change | −0.948 | −0.184 log2 fold change | −0.441 | −0.226 log2 fold change | −0.540 | −0.342 log2 fold change | −0.816 | −0.006 log2 fold change | −0.055 | −0.092 log2 fold change | −0.803 | −0.009 log2 fold change | −0.077 | −0.183 log2 fold change | −1.594 | –
CC(C)CCN1c2nc(Nc3cc(F)c(O)c(F)c3)ncc2N(C)C(=O)C1C (centres unmarked) [BI-D1870] | – | – | – | – | – | – | – | – | – | – | – | – | – | – | – | – | – | – | – | – | Dose.FC.LYZ.S ([1]; dose 0.08 uM): 0.162 log2 fold change; Dose.FC.LYZ.S ([1]; dose 0.40 uM): 0.158 log2 fold change; Dose.FC.LYZ.S ([1]; dose 2.00 uM): 0.008 log2 fold change; Dose.FC.LYZ.S ([1]; dose 10.00 uM): −0.378 log2 fold change; Dose.FC.CTG (ENR+CD organoids; dose 0.08 uM): 0.186 log2 fold change; Z.CTG (standard z score) (ENR+CD organoids; dose 0.08 uM): 0.444; Dose.FC.CTG (ENR+CD organoids; dose 0.40 uM): 0.029 log2 fold change; Z.CTG (standard z score) (ENR+CD organoids; dose 0.40 uM): 0.069; Dose.FC.CTG (ENR+CD organoids; dose 2.00 uM): −0.012 log2 fold change; Z.CTG (standard z score) (ENR+CD organoids; dose 2.00 uM): −0.028; Dose.FC.CTG (ENR+CD organoids; dose 10.00 uM): −0.700 log2 fold change; Z.CTG (standard z score) (ENR+CD organoids; dose 10.00 uM): −1.673; Dose.FC.LYZ.NS ([2]; dose 0.08 uM): 0.141 log2 fold change; Z.LYZ.NS (standard z score) ([2]; dose 0.08 uM): 1.225; Dose.FC.LYZ.NS ([2]; dose 0.40 uM): 0.126 log2 fold change; Z.LYZ.NS (standard z score) ([2]; dose 0.40 uM): 1.099; Dose.FC.LYZ.NS ([2]; dose 2.00 uM): −0.066 log2 fold change; Z.LYZ.NS (standard z score) ([2]; dose 2.00 uM): −0.574; Dose.FC.LYZ.NS ([2]; dose 10.00 uM): −0.285 log2 fold change; Z.LYZ.NS (standard z score) ([2]; dose 10.00 uM): −2.483
C[C@H](NC(=O)[C@@H](O)c1cc(F)cc(F)c1)C(=O)N[C@@H]1C(=O)N(C)c2ccccc2-c2ccccc21 [LY411575] | – | – | – | – | – | – | – | – | – | – | – | – | – | – | – | – | – | – | – | – | Dose.FC.LYZ.S (log2 fold change) ([1]; dose 0.08 uM): 0.024; Dose.FC.LYZ.S (log2 fold change) ([1]; dose 0.40 uM): 0.041; Dose.FC.LYZ.S (log2 fold change) ([1]; dose 2.00 uM): −0.091; Dose.FC.LYZ.S (log2 fold change) ([1]; dose 10.00 uM): −0.157; Dose.FC.CTG (log2 fold change) (ENR+CD organoids; dose 0.08 uM): 0.035; Z.CTG (standard z score) (ENR+CD organoids; dose 0.08 uM): 0.083; Dose.FC.CTG (log2 fold change) (ENR+CD organoids; dose 0.40 uM): −0.172; Z.CTG (standard z score) (ENR+CD organoids; dose 0.40 uM): −0.411; Dose.FC.CTG (log2 fold change) (ENR+CD organoids; dose 2.00 uM): −0.172; Z.CTG (standard z score) (ENR+CD organoids; dose 2.00 uM): −0.412; Dose.FC.CTG (log2 fold change) (ENR+CD organoids; dose 10.00 uM): −0.259; Z.CTG (standard z score) (ENR+CD organoids; dose 10.00 uM): −0.618; Dose.FC.LYZ.NS (log2 fold change) ([2]; dose 0.08 uM): 0.040; Z.LYZ.NS (standard z score) ([2]; dose 0.08 uM): 0.347; Dose.FC.LYZ.NS (log2 fold change) ([2]; dose 0.40 uM): −0.050; Z.LYZ.NS (standard z score) ([2]; dose 0.40 uM): −0.434; Dose.FC.LYZ.NS (log2 fold change) ([2]; dose 2.00 uM): −0.069; Z.LYZ.NS (standard z score) ([2]; dose 2.00 uM): −0.598; Dose.FC.LYZ.NS (log2 fold change) ([2]; dose 10.00 uM): −0.109; Z.LYZ.NS (standard z score) ([2]; dose 10.00 uM): −0.949
CNC(=O)c1ccc2cc([C@@]3(O)CCn4cncc43)ccc2c1 [TAK-700 (Orteronel)] | 0.113 log2 fold change | 0.090 log2 fold change | 0.093 log2 fold change | 0.032 log2 fold change | −0.276 log2 fold change | −0.659 | −0.024 log2 fold change | −0.056 | −0.084 log2 fold change | −0.202 | 0.092 log2 fold change | 0.219 | 0.176 log2 fold change | 1.535 | 0.182 log2 fold change | 1.585 | 0.121 log2 fold change | 1.058 | −0.002 log2 fold change | −0.018 | –
